We go through 5 compounds from paper PMC3726599, “A Metabolically-Stabilized Phosphonate Analog of Lysophosphatidic Acid Attenuates Collagen-Induced Arthritis” (PLoS ONE, 2013).

The target of data set [1] is T1, recombinant ATX (Homo sapiens, UniProt Q13822).
T1 construct: purchased SinoBiological Inc (main data); R&D (additional Km values)
As to the kind of experiment: Amplex Red activity assay, LPC hydrolysis by recombinant ATX (Echelon). Type of data set: biochemical. The note with it: substrate Km, recombinant ATX from Echelon. The protocol:
BrP-LPA inhibition was also tested with the more sensitive reagent Amplex Red based on the Amplex™ Red PLD assay kit (Molecular Probes, Interchim, Montluçon, France) originally designed for the measurement of the PLD activity, [49]. All reactions were performed with purified ATX (2 nM) from Echelon at 37°C. The ability of ATX to cleave LPC was detected using a coupled assay that monitors the release of choline using Amplex Red (10 μΜ), choline oxidase (0.2 Units/ml) and horseradish peroxidise (2 Units/ml) The rate of fluorescence increase was measured in a fluorescence plate reader (Tecan Infinite 200 microplate reader from Tecan Trading AG, Switzerland) for up to 80 minutes; the fluorescence increase was linear during that time-frame for all cases. Rates were normalized to control reactions that contained all reaction components except for the test compound.
(§1) The biochemistry of lyso-PLD was assessed by following the kinetics data using a wide panel of different ATX substrates [FS-3, different LPC species (14:0, 16:0, 18:0, 18:1)], three different recombinant ATX proteins (R&D, Sino-Biological and Echelon) and three different ATX activity assays (FS-3, TOOS, Amplex Red). The ATX activity was measured at different substrate concentrations (typically from 1-1000 μM) in order to examine whether ATX follows Michaelis-Menten kinetics. The Michaelis constant (Km) was obtained by fitting the substrate dependence of V (ATX activity) to a rectangular hyperbola using the non-linear regression analysis of the statistical software package Prism 4.0 (GraphPad Software, Inc.). Km and Vmax were evaluated from the rectangular hyperbola curve with the use of GraphPad software.
(§2) For in vitro inhibition measurements, BrP-LPA was dissolved in water as a stock solution (4 mM) and appropriate dilutions were made in water. The inhibition of ATX by BrP-LPA was measured employing 2 nM recombinant ATX, 50 μΜ LPC (14:0, 16:0, 18:0) and 0.01 to 100 μmol/L of BrP-LPA (final concentrations). The in vitro inhibition of ATX by BrP-LPA was evaluated with three different assays (FS-3, Amplex Red, and TOOS). […] BrP-LPA was also tested for its ability to inhibit mouse plasma ATX activity. Diluted mouse plasma was used as the source of ATX and the analysis of inhibition was made with TOOS as the in vitro inhibition assay.
The inhibition model (competitive, noncompetitive, or mixed type inhibition) was evaluated by graphical analysis with Lineweaver–Burk double reciprocal plots (1/[velocity] versus 1/[substrate]) and Cornish-Bowden plot ([substrate]/[velocity] versus [Inhibitor]). These plots were generated by the measurement of ATX activity in the presence of different BrP-LPA concentrations (0–10 μΜ) and increased amounts of 16:0 LPC (100, 200, 400 μΜ). The inhibition constants (Ki) and IC50 values were determined using the mean values obtained from two independent experiments. The relative remaining ATX activity or LPA levels in the presence of the BrP-LPA was expressed as a percentage of the corresponding control value (ATX activity, LPA levels without inhibitor). The IC50 value was determined graphically by plotting the log concentration of BrP-LPA versus relative remaining ATX activity or LPA levels of each test sample using the sigmoid dose–response fitting method (Prism® software). The IC50 (concentration of BrP-LPA sufficient to inhibit ATX activity or diminish LPA levels by 50%) was calculated by the equation f = y0+a/(1+exp(-(x-x0)/b)) given by SigmaPlot 11.0 (Systat Software, Inc., San Jose, CA, USA).
Ki was calculated using the equation of Cheng and Prusoff: Ki = IC50/1+[S]/Km, where Ki is the binding affinity of the inhibitor, IC50 is the functional strength of the inhibitor, [S] is substrate concentration and Km is the concentration of substrate at which enzyme activity is half maximal. Whereas the IC50 value for a compound may vary between experiments depending on experimental conditions, Ki is an absolute value. […]

Data set [2] concerns the target T1, recombinant ATX. As to the kind of experiment: TOOS activity assay, LPC hydrolysis by recombinant ATX. The class given is biochemical. The note with it: substrate Km, TOOS. As for the experimental part: ATX/LysoPLD activity was assessed based on the amount of choline released from LPC with the use of TOOS (N-ethyl-N-(2-hydoroxy-3-sulfopropyl)-3-methylaniline) reagent. In this assay ATX-mediated LPC-liberated choline is oxidised by choline oxidase to betaine and hydrogen peroxide (H2O2). The latter in the presence of horseradish peroxidase reacts with TOOS and 4-aminoantipyrene (4-AAP) to form a pink quinoneimine dye measured at 555 nm.
Diluted plasma samples (100 fold dilution; final EDTA concentration 0.5 mM) or recombinant ATX protein (2 nM) were incubated with LPC in the presence of 100 mmol/l Tris–HCl/pH 9.0, 500 mmol/l NaCl, 5 mmol/l MgCl2, 5 mmol/l CaCl2, 60 μM CoCl2 and 0.05% Triton X-100 for 3 h at 37°C at a final volume of 100 μl. It should be noted that EDTA was used not only as an anticoagulant but also as an inhibitor of ATX activity ex vivo [46], in order to suppress artificial LPA production during blood withdrawal and plasma preparation; this is because the same samples were used in phospholipid measurements.
The liberated choline was detected by adding 100 μl of a color mix containing 4-AAP and TOOS (0.3 mM), horseradish peroxidase (5.3 UnitmL^−1) and choline oxidase (2 UnitmL^−1). Absorbance was measured at 555 nm and data were analyzed using the statistical software package Prism 4.0 (Graphpad Software Inc, La Jolla, CA, USA). For each sample and control the absorbance was plotted against time and the slope (da/min) for the linear (steady-state) portion of each reaction profile was calculated. Absorbance units were converted to nmol of choline/min/ml by comparison with a choline standard curve or by use of the extinction coefficient for the quinoneimine dye according to the following equation: [drawing 1] Where Vt* is the total volume of reaction in ml (0.2 ml); Vs* is the volume of sample in ml; e is the millimolar extinction coefficient of quinoneimine dye under the assay conditions (e = e = […]); and 1/2: Factor based on the fact that 1 mol of hydrogen peroxide produces 1/2 mol of quinoneimine dye.
as §1, §2
The inhibition model (competitive, noncompetitive, or mixed type inhibition) was evaluated by graphical analysis with Lineweaver–Burk double reciprocal plots (1/[velocity] versus 1/[substrate]) and Cornish-Bowden plot ([substrate]/[velocity] versus [Inhibitor]). These plots were generated by the measurement of ATX activity in the presence of different BrP-LPA concentrations (0–10 μΜ) and increased amounts of 16:0 LPC (100, 200, 400 μΜ). […]

On the set-up of data set [3]: method as in PMID 22354754. The note with it: cited from earlier work.
Data set [4] relates to COX-2 expression from SFs. Also noted: method as in PMID 18802115. The settings on record: cited from earlier work.
The subject of data set [5] is K/BxN serum transfer RA model. Also noted: method as in PMID 18491295, PMID 22354754. The note with it: cited from earlier work.
The mark [6] stands for this setting: recombinant ATX from Sinobiological Inc.

In general, Km refers to the substrate concentration at which the rate is half of its maximum.

Consider `CCCCCCCCCCCCCC(=O)OC[C@@H](O)COP(=O)([O-])OCC[N+](C)(C)C` [14:0 LPC, reference compound], for which the Km in data set [1] came to 80 ± 9 µM.
As for `CCCCCCCCCCCCCCCC(=O)OC[C@@H](O)COP(=O)([O-])OCC[N+](C)(C)C` [16:0 LPC, reference compound], the Km in data set [2] (recombinant ATX from R&D) was 90 µM; in data set [2] (setting [6]), 60 ± 11 µM.
In the case of `CCCCCCCCCCCCCCCCCC(=O)OC[C@@H](O)COP(=O)([O-])OCC[N+](C)(C)C` [18:0 LPC, reference compound], the Km in data set [1] is 116 ± 13 µM; in data set [2] (recombinant ATX from R&D), 114 µM; in data set [2] (setting [6]) it was 82 ± 11 µM.
Regarding `CCCCCCCC/C=C\CCCCCCCC(=O)OC[C@@H](O)COP(=O)([O-])OCC[N+](C)(C)C` [18:1 LPC, reference compound], the Km in data set [2] (setting [6]) was 55 ± 10 µM.
In the case of `Cc1noc(-c2ccc(CSCCC(=O)O)cc2)c1NC(=O)OC(C)c1ccccc1Cl` (stereo not shown) [ki16425], the half-life entry in data set [3] was “very short half-life”. Further, the “LPA-mediated COX-2 expression” value in data set [4] is “inhibit LPA-mediated COX-2 expression”. Besides, the arthritis severity result in data set [5] is given as “reduction of arthritis severity”.
